Values after ≈ are worked out from the molar mass of the structure shown.
Assays:
[1] = tested on: mouse B16-F10 melanoma cells; test: Inhibition of proliferation of tumor cell lines (MTT), B16-F10; type: cell-based; settings: Mus musculus, B16-F10, 72 h, read-out: IC50 value of compound for inhibition of proliferation of tumor cell lines, B16-F10
Experimental: (§1) In this example, the inhibitory activity of compounds of the present invention against proliferation of seven human tumor cell lines and mouse B16-F10 melanoma cells was tested in vitro, and the IC50 value (50% inhibitory concentration) of compounds against each tumor cell line was calculated.
(§2) IC50 values of the compounds for A549, BGC-823, LOVO, MCF-7, SMMC-7721, HeLa, and B16-F10 cells were tested. The above cells were routinely cultured in 1640 nutrient solution containing 10% calf serum, with passage for 1 time every 2 days, and the cells in logarithmic growth phase were taken for experiments. After the A549, BGC-823, LOVO, MCF-7, SMMC-7721, HeLa and B16-F10 cells in logarithmic growth phase were subjected to 0.25% trypsin digestion, they were blown into a single cell suspension, and then the cell concentration was adjusted to about 1×10^5·mL^−1 using RPMI 1640 solution containing 10% calf serum. The cells were seeded in a 96-well culture plate at 100 μL per well, and cultured for 24 hours until the cells were attached. K562 cells were taken and centrifuged and diluted into 2×10^5·mL^−1 single cell suspension with RPMI 1640 solution containing 10% calf serum, and inoculated into a 96-well culture plate at 100 μL per well.
(§3) 100 μL of sample solution with different concentrations to be tested were added to the above 96-well plate, each concentration was added to 4 wells in parallel, and the cell control group was added with an equal volume of RPMI 1640 medium containing 10% calf serum to make a reaction volume of 200 μL. After incubating in an incubator at 37° C., 5% CO2 for 72 h, 10 μL of 5 mg·mL^−1 MTT solution was added to each well, and incubated at 37° C. for 4 h. The supernatant was carefully aspirated, 180 μL of DMSO was added to each well followed by shaking, and the absorbance (OD) value was measured at 570 nm on the microplate reader. The inhibition rate was calculated, and regression equation was established with the logarithmic value of the sample concentration and the inhibition rate (IR) to find the IC50 value of the compound against the cells to be tested. IR (%)=(1−OD value of the experimental group/OD value of the cell control group)×100%

[2] = tested on: HeLa (human cervical cancer cells); test: Inhibition of proliferation of tumor cell lines (MTT), HeLa; type: cell-based; settings: Homo sapiens, 72 h, read-out: IC50 value of compound for inhibition of proliferation of tumor cell lines, HeLA
Experimental: as §1
(§4) The seven human tumor cell lines are: MCF-7 (human breast cancer cells), LOVO (human colon cancer cells), A549 (human lung cancer cells), BGC-823 (human gastric cancer cells), SMMC-7721 (human liver cancer cells), K562 (human leukemia cells), and HeLa (human cervical cancer cells).
as §2, §3

[3] = tested on: SMMC-7721 (human liver cancer cells); test: Inhibition of proliferation of tumor cell lines (MTT), SMMC-7721; type: cell-based; settings: Homo sapiens, SMMC-7721, 72 h, read-out: IC50 value of compound for inhibition of proliferation of tumor cell lines, SMMC-7721
Experimental: as §1, §4, §2, §3

[4] = tested on: LOVO (human colon cancer cells); test: Inhibition of proliferation of tumor cell lines (MTT), LOVO; type: cell-based; settings: Homo sapiens, 72 h, read-out: IC50 value of compound for inhibition of proliferation of tumor cell lines, LOVO
Experimental: as §1, §4, §2, §3

[5] = tested on: A549 (human lung cancer cells); test: Inhibition of proliferation of tumor cell lines (MTT), A549; type: cell-based; settings: Homo sapiens, A549, 72 h, read-out: IC50 value of compound for inhibition of proliferation of tumor cell lines, A549
Experimental: as §1, §4, §2, §3

B16-F0 mouse melanoma = test: Antitumor activity in B16-F0 mouse melanoma model; type: in vivo; settings: female C57BL/6J mice, intradermal B16 tumor, skin administration once per day for 3 days, 20 μL/mouse, tumor weight on day 19
Experimental: This Example investigated the antitumor activity of compounds in B16-F0 mouse melanoma model.
In vitro passage of B16-F0 tumor source was inoculated subcutaneously into female C57BL/6J mice, and passage was carried out after tumor formation. After passage, the subcutaneous tumor tissue of the tumor-bearing mice was taken and ground with 3 times amount of physiological saline to form a tumor cell suspension, and 0.2 mL/mouse of which was inoculated subcutaneously into the axilla of forelimb of mice, which were used as the tumor-source mice. Female C57BL/6J mice were taken and their hair in an area of 4 cm^2 on the neck and back was shaven. After anesthesia with diethyl ether, B16 tumor source was inoculated intradermally at 0.05 mL/mouse. After 3 days of inoculation, the skin was continuously administered for 3 days, once per day, 20 μL/mouse each time, and in the test, a solvent group as a negative control group was included. On the 19th day of the experiment, the experiment was terminated. After the mice were euthanized, the intradermally transplanted tumors were completely separated and excised, and the tumor was weighed to calculate the tumor inhibition rate. Calculation formula of tumor inhibition rate: tumor inhibition rate (%)=(Wmodel group−Wadministration group)/Wmodel group×100%
The tumor growths of the experimental group and the solvent control group were compared to evaluate the antitumor activity of each compound, and the compound with P<0.05 was considered to be effective.

[6] = tested on: neutrophilic granulocytes; test: Neutrophil oxidative burst (luminol chemiluminescence); type: cell-based; settings: Neutrophil, rat neutrophils, (Csample−Ccontrol)/Ccontrol×100%, read-out: Efficiency of compounds in stimulating neutrophil oxidative burst; for activation at 3 µg/mL: 3 μg/mL; for activation at 0.1 µg/mL: 0.1 μg/mL
Experimental: This example investigated the effect of compound on neutrophil oxidative burst and calculated the efficiency of each compound in stimulating neutrophil oxidative burst.
Blood was taken from the abdominal aorta of rat. The neutrophilic granulocytes were isolated by the operational procedure of the rat peripheral blood neutrophil isolation kit. The neutrophilic granulocytes were re-suspended by Hanks, and were plated in a 96-well white plate at 1×10^5 cells/well, 80 μL/well; 1 mM of Luminol was added at 10 μL/well; 10 μL of the sample was added to each well, and the degree of oxidative burst was evaluated by chemiluminescence. Calculation formula of Efficiency: Efficiency (%)=(Csample−Ccontrol)/Ccontrol×100%

[7] = tested on: K562 (human leukemia cells); test: Inhibition of proliferation of tumor cell lines (MTT), K562; type: cell-based; settings: Homo sapiens, K562, 72 h, read-out: IC50 value of compound for inhibition of proliferation of tumor cell lines, K562
Experimental: as §1, §4, §2, §3

[8] = tested on: MCF-7 (human breast cancer cells); test: Inhibition of proliferation of tumor cell lines (MTT), MCF-7; type: cell-based; settings: Homo sapiens, MCF7, MCF-7, 72 h, read-out: IC50 value of compound for inhibition of proliferation of tumor cell lines, MCF-7
Experimental: as §1, §4, §2, §3

[9] = tested on: BGC-823 (human gastric cancer cells); test: Inhibition of proliferation of tumor cell lines (MTT), BGC-823; type: cell-based; settings: Homo sapiens, BGC-823, 72 h, read-out: IC50 value of compound for inhibition of proliferation of tumor cell lines, BGC-823
Experimental: as §1, §4, §2, §3

[10] = tested on: release of IL-8 by human keratinocytes (HaCaT); test: Release of IL-8 by human keratinocytes (HaCaT), IL-8 Elisa; type: cell-based; settings: Homo sapiens, HaCaT, 24 h, (Csample−Ccontrol)/Ccontrol×100%, read-out: Efficiency of compound in stimulating the release of IL-8 by HaCaT cells; for activation at 0.1 µg/mL: 0.1 μg/mL; for activation at 1 µg/mL: 1 μg/mL
Experimental: This Example investigated the effect of compound on release of IL-8 by human keratinocytes (HaCaT) and calculated the efficiency of each compound in stimulating the release of IL-8 by human keratinocytes (HaCaT).
Hacat cells were cultured in MEM+10% FBS under the conditions of 37° C., 5% CO2, and when the cells reached 80-95% fusion, they were inoculated into a 96-well culture plate (1×10^4 cells/well) at 100 μL/well, and incubated for 18-24 h. The supernatant was discarded and the cells were incubated for 3-6 h in 1% FBS medium. Different concentrations of the sample solution of compound to be tested were added to each well, and the cell control group was added with an equal volume of 1% FBS medium at 10 μL/well, and incubated for 24 h. The supernatant was taken and tested according to the operation sequence of the IL-8 Elisa kit. Calculation formula of Efficiency: Efficiency (%)=(Csample−Ccontrol)/Ccontrol×100%

| Structure (SMILES) | IC50 [1] | IC50 [2] | IC50 [3] | IC50 [4] | IC50 [5] | Tumor-inhibition rate (B16-F0 mouse melanoma) | activation at 3 µg/mL [6] | IC50 [7] | IC50 [8] | IC50 [9] | activation at 0.1 µg/mL [10] | activation at 0.1 µg/mL [6] | activation at 1 µg/mL [10] |
| --- | --- | --- | --- | --- | --- | --- | --- | --- | --- | --- | --- | --- | --- |
| C/C=C(/C)C(=O)O[C@H]1C(C)=C[C@]23C(=O)[C@@H](C=C(CO)[C@@H](O)[C@]12O)[C@@H]1C(C)(C)[C@]1(OC(=O)CCC)C[C@H]3C [Compound 16, 3-O-angeloyl-13-O-butanoyl-ingenol] | 17 µg/mL (≈ 32.9 µM) | 61.1 µg/mL (≈ 118 µM) | 43.5 µg/mL (≈ 84.2 µM) | 36.9 µg/mL (≈ 71.4 µM) | 46.8 µg/mL (≈ 90.6 µM) | 89.6% | 80.1% | 4.21 µg/mL (≈ 8.15 µM) | 38.4 µg/mL (≈ 74.3 µM) | 44.1 µg/mL (≈ 85.4 µM) | 84.6% | – | – |
| C/C=C(/C)C(=O)O[C@H]1C(C)=C[C@]23C(=O)[C@@H](C=C(CO)[C@@H](O)[C@]12O)[C@@H]1C(C)(C)[C@]1(OC(=O)CCCCCCC)C[C@H]3C [Compound 18, 3-O-angeloyl-13-O-octanoyl-ingenol] | 8.43 µg/mL (≈ 14.7 µM) | 12.2 µg/mL (≈ 21.3 µM) | 12.4 µg/mL (≈ 21.7 µM) | 8.47 µg/mL (≈ 14.8 µM) | 13.6 µg/mL (≈ 23.7 µM) | 59.0% | – | 1.41 µg/mL (≈ 2.46 µM) | 11.7 µg/mL (≈ 20.4 µM) | 10.1 µg/mL (≈ 17.6 µM) | 29.8% | 69.1% | – |
| CCCCCCCCCCCC(=O)O[C@@]12C[C@@H](C)[C@]34C=C(C)[C@H](OC(=O)C(C)(C)C)[C@@]3(O)[C@H](O)C(CO)=C[C@H](C4=O)[C@@H]1C2(C)C [3-O-trimethylacetyl-13-O-dodecanoyl-ingenol] | 7.7 µg/mL (≈ 12.2 µM) | 14.2 µg/mL (≈ 22.5 µM) | 15.1 µg/mL (≈ 23.9 µM) | 9.68 µg/mL (≈ 15.3 µM) | 17.5 µg/mL (≈ 27.7 µM) | 47.4% | – | < 0.2 µg/mL | 8.79 µg/mL (≈ 13.9 µM) | 6.81 µg/mL (≈ 10.8 µM) | 83.7% | 205% | – |
| C/C=C(/C)C(=O)O[C@H]1C(C)=C[C@]23C(=O)[C@@H](C=C(CO)[C@@H](O)[C@]12O)[C@@H]1C(C)(C)[C@]1(OC(=O)CCCCC)C[C@H]3C [Compound 17, 3-O-angeloyl-13-O-hexanoyl-ingenol] | 6.5 µg/mL (≈ 11.9 µM) | 18.6 µg/mL (≈ 34.1 µM) | 21.1 µg/mL (≈ 38.7 µM) | 16.9 µg/mL (≈ 31 µM) | 21.7 µg/mL (≈ 39.8 µM) | 68.8% | – | 2.93 µg/mL (≈ 5.38 µM) | 18.6 µg/mL (≈ 34.1 µM) | 21.7 µg/mL (≈ 39.8 µM) | 121% | 82.1% | – |
| C/C=C(/C)C(=O)O[C@H]1C(C)=C[C@]23C(=O)[C@@H](C=C(CO)[C@@H](O)[C@]12O)[C@@H]1C(C)(C)[C@]1(OC(=O)CCCCCCCCCCC)C[C@H]3C [Compound 9, 3-O-angeloyl-13-O-dodecanoyl-ingenol] | 10.4 µg/mL (≈ 16.5 µM) | 12.5 µg/mL (≈ 19.9 µM) | 8.86 µg/mL (≈ 14.1 µM) | 10.1 µg/mL (≈ 16.1 µM) | 10.8 µg/mL (≈ 17.2 µM) | 71.8% | 77% | 1.87 µg/mL (≈ 2.97 µM) | 10.1 µg/mL (≈ 16.1 µM) | 0.85 µg/mL (≈ 1.35 µM) | – | – | 23.5% |
| C/C=C(/C)C(=O)O[C@H]1C(C)=C[C@]23C(=O)[C@@H](C=C(CO)[C@@H](O)[C@]12O)[C@@H]1C(C)(C)[C@]1(OC(C)=O)C[C@H]3C [Compound 8, 3-O-angeloyl-13-O-acetyl-ingenol] | – | > 100 µg/mL | 96.6 µg/mL (≈ 198 µM) | > 50 µg/mL | > 50 µg/mL | 90.3% | – | 0.0065 µg/mL (≈ 0.0133 µM) | > 50 µg/mL | > 100 µg/mL | – | – | 38.3% |
| CCCCCCCCCCCC(=O)O[C@@]12C[C@@H](C)[C@]34C=C(C)[C@H](OC(=O)C(C)=C(C)C)[C@@]3(O)[C@H](O)C(CO)=C[C@H](C4=O)[C@@H]1C2(C)C [Compound 21, 3-O-(2,3-dimethylbutenoyl)-13-O-dodecanoyl-ingenol] | 15.1 µg/mL (≈ 23.5 µM) | 15.3 µg/mL (≈ 23.8 µM) | 12.8 µg/mL (≈ 19.9 µM) | 12.4 µg/mL (≈ 19.3 µM) | 11.8 µg/mL (≈ 18.4 µM) | 64.1% | 34.8% | 2.06 µg/mL (≈ 3.2 µM) | 8.32 µg/mL (≈ 12.9 µM) | 10.4 µg/mL (≈ 16.2 µM) | 127% | – | – |
| C/C=C(/C)C(=O)O[C@H]1C(C)=C[C@]23C(=O)[C@@H](C=C(CO)[C@@H](O)[C@]12O)[C@@H]1C(C)(C)[C@]1(OC(=O)CCCCCCCCC)C[C@H]3C [Compound 19, 3-O-angeloyl-13-O-decanoyl-ingenol] | 9.85 µg/mL (≈ 16.4 µM) | 8.58 µg/mL (≈ 14.3 µM) | 13.4 µg/mL (≈ 22.3 µM) | 7.9 µg/mL (≈ 13.1 µM) | 12.6 µg/mL (≈ 21 µM) | 65.7% | – | 2.13 µg/mL (≈ 3.55 µM) | 9.3 µg/mL (≈ 15.5 µM) | 14 µg/mL (≈ 23.3 µM) | 144% | 43.5% | – |

— patent US11753363B2, “13-oxidized ingenol derivative and use thereof” (Tianjin Pharmaceutical Da Ren Tang Group Corp., Ltd. …, priority 2017, dated 2023)
